Test results: patent publication US20230295066A1, “Process for the Efficient Preparation of (Bio)-Alkanediols” (Symrise AG, priority 2020, published 2023)
Each block holds one compound with its values, some of them ahead of it.

Experiments:
Aspergillus brasiliensis = assay: Minimum Inhibitory Concentration (MIC) test, alkanediol mixtures; type: cell-based; details: for MICA: Comp. A alone; for MICB: Comp. B alone
Experimental: (§1) The Minimum Inhibitory Concentration (MIC) test is a test on growth inhibition. The estimation of MICs is executed in 96 well plates. Through the comparison of bacterial growth with positive and negative controls via optical density (OD), different concentrations of given test substances are evaluated.
(§2) Bacteria were cultivated under adjusted conditions based on information of the German Collection of Microorganisms and Cell Cultures (DSMZ) and stored in 50% glycerol prior to use. Afterwards, the following method was applied: Growth medium (according to microorganism) was added to each well of the microplate. Then, the test-substances were added in different concentrations, positive controls (water controls only with medium) and negative controls (benchmarks according to organism). Finally, the microorganisms were added in a concentration of 10^6 CFU/ml (CFU=colony forming units). The incubation of the microplates was carried out at appropriate conditions.
(§3) According to the resulting growth, substance concentrations are labelled either as inhibiting or not and MIC is defined as the lowest concentration where a complete growth inhibition is visible. Experiments at concentration limits (highest concentration labelled as growth and lowest concentration labelled as inhibiting) are performed at least twice.
(§4) Minimum Inhibitory Concentration (MIC) are given in ppm.
To verify that the tested combinations act synergistically against microorganisms of the natural microbiota of mammalian skin, a corresponding experiment was conducted with Aspergillus brasiliensis, a well-known pathogen on the skin. The synergistic activities of different alkanediol mixtures including a 1,2-alkanediol (substance A) and a 2,3-alkanediol (substance B) in ratios as specified in the following Table 5 were determined by measuring the MIC of the mixture as indicated in methods section.
In order to calculate the synergy index with MIC values, the Kull equation (I) was used as follows:
SI=(MICmix×PA)/MICA+(MICmix×PB)/MICB
wherein • SI is the Synergy Index according to Kull • MICA is the MIC value for Substance A in ppm • MICB is the MIC value for Substance B in ppm • MICmix is the MIC value for the mixture of substances A and B and C in ppm • PA is the proportion of the substance A in the mixture • PB is the proportion of the substance B in the mixture

Staphylococcus aureus = assay: Minimum Inhibitory Concentration (MIC) test, synergy with antimicrobials; type: cell-based; details: for MICA: MIC value for Substance A alone; for MICC: MIC value for Substance C alone; for MICB: MIC value for Substance B alone
Experimental: as §1, §2, §3, §4
The synergistic activity of different combinations of 1,2-nonanediol (C9 nonanediol) and 1,2-heptanediol (C7 heptanediol) as components A and C in combination with different antimicrobial compounds (component B) was determined by measuring the corresponding Minimum Inhibitory Concentrations (MIC).
To verify that the tested combinations act synergistically against microorganisms of the natural microbiota of mammalian skin, a corresponding experiment was conducted with Staphylococcus aureus, a well-known pathogen on the skin. The synergistic activities of 1,2-nonanediol (1,2-C9), 1,2-heptanediol (1,2-C7), 2,3-nonanediol (2,3-C9), 2,3-heptanediol (2,3-C7) and different antimicrobial compounds were determined by measuring the MIC of the mixture as indicated above.
In order to calculate the synergy index with MIC values, the Kull equation (equation 6) was used as follows:
SI=(MICmix×PA)/MICA+(MICmix×PB)/MICB+(MICmix×PC)/MICC Equation (6): Minimum Inhibitory Concentration
wherein • SI is the Synergy Index according to Kull • MICA is the MIC value for Substance A in ppm • MICB is the MIC value for Substance B in ppm • MICC is the MIC value for Substance C in ppm • MICmix is the MIC value for the mixture of substances A and B and C in ppm • PA is the proportion of the substance A in the mixture • PB is the proportion of the substance B in the mixture • PC is the proportion of the substance C in the mixture

[1] = Solubility in sunflower oil; type: physicochemical; details: result in words
[2] = tested on: reactive oxygen species (ROS) on ex vivo skin; assay: DCF assay, ROS score on ex vivo skin biopsies; type: cell-based; details: Cumene hydroperoxide 0.5M
Experimental: A dichlorofluorescein test (DCF) assay was performed in order to determine the amount of reactive oxygen species (ROS) on ex vivo skin treated with different test samples in a lipophilic or an aqueous/alcoholic system as described below.
DCF assay—assay principle: Ex vivo skin was incubated with 2′,7′-dichlorodihydrofluorescein diacetate at 37° C., 5% CO2. After PBS washing, the samples were exposed or not to cumene hydroperoxide. Immediately after exposure, ex vivo skin samples were frozen in liquid nitrogen and 5 μm cryostat sections were made and fixed with acetone to allow the visualization of fluorescence generated by ROS in cells of the reconstructed skins. The resulting fluorescence was measured at EX/EM 504/524 nm. Green fluorescence was quantified in ex vivo skin using ImageJ software. The depth of immunostaining was measured as follows: green DCFH-DE positive cells were automatically detected using Histolab software and the distance between dermal epidermal junction and the deepest positive cells were measured in each condition. Means were compared using a student's test. Two means were considered statistically different when p<0.005.
The image acquisition was performed by using Olympus BX51 microscope and Olympus DP70 camera. For each skin sample two skin sections have been taken and the related fluorescent images acquired and analysed. Thus, for each test condition, 12 images have been acquired and analysed (i.e. 12 data). The analysis of fluorescence has been performed within the dermis area. For each image the upper dermis has been analysed by evaluating the fluorescence through modified Image-J application (NIH, USA). The analysed area is selected from the upper part by following the perimeter of the basal lamina, to the deep dermis, by carefully avoiding the risk of including irregularities and agglomerates, such as blood vessels, sebaceous glands, hair follicles. The obtained value has been normalized upon the dimension of the selected area.
In addition, as positive control an AOX mix is always co-tested, i.e., as benchmark for the ROS analysis. The AOX mix is a mixture of the following antioxidants: 15% vitamin C, 1% vitamin E, 0.5% ferulic acid in a EtOH/H2O (50:50) mixture.
ROS score method description: The pigmentation score is based on the following process steps: • (1) Analysis of the image based on pixel grey intensities; • (2) Selection of an informative area excluding the pixel area not covered from tissue; • (3) Transformation of pixel grey intensities in degrees of L*; • (4) Normalization of the obtained values on the ratio between the selected area and the area of the slide.
An increased level of ROS (reactive oxygen species) led to an increased amount of fluorescence. […]

Compound: CCCCC(O)CO (stereo not drawn) [1,2-C6, 1,2-hexanediol]
MICA (Aspergillus brasiliensis): 7500 ppm

Compound: CCCCCCCC(O)CO (stereo not drawn) [1,2-C9, 1,2-nonanediol]
MICA (Aspergillus brasiliensis): 500 ppm
MICA (Staphylococcus aureus): 1000 ppm

Compound: CCCC(O)C(C)O (stereo not drawn) [2,3-C6, 2,3-hexanediol]
MICB (Aspergillus brasiliensis): 20000 ppm

Compound: CCCCC(O)C(C)O (stereo not drawn) [2,3-C7, 2,3-heptanediol]
MICB (Aspergillus brasiliensis): 7500 ppm
MICC (Staphylococcus aureus): 20000 ppm

Compound: CCCCCCC(O)C(C)O (stereo not drawn) [2,3-C9, 2,3-nonanediol]
MICB (Aspergillus brasiliensis): 1000 ppm
MICC (Staphylococcus aureus): 2500 ppm

Compound: O=C(CCc1ccc(O)cc1)Nc1ccccc1C(=O)O [50 ppm DHAvD, Dihydroavenanthramide D]
ROS score, Mean Score ([2]; ex vivo skin, mean of 12 tests): 1.72
D percent vs. - A cumene ([2]; ROS score): −14%
D percent vs. untreated cumene ([2]; ROS score): −21%
D percent vs. untreated/No cumene ([2]; ROS score): 1645%

Compound: OCc1ccccc1 [Benzyl alcohol, reference compound]
MICB (Staphylococcus aureus): 5000 ppm

Compound: o-Cymen-5-ol [reference compound]
MICB (Staphylococcus aureus): 250 ppm

The remaining lines, values ahead:

MICA (Aspergillus brasiliensis): 5000 ppm
MICA (Staphylococcus aureus): 7500 ppm
Compound: CCCCCC(O)CO (stereo not drawn) [1,2-C7, 1,2-heptanediol]

MICA (Aspergillus brasiliensis): 2500 ppm
Solubility in sunflower oil / oil phase [1]: tends to precipitate or recrystallize
Compound: CCCCCCC(O)CO (stereo not drawn) [1,2-C8, 1,2-octanediol]

MICB (Aspergillus brasiliensis): 2500 ppm
Solubility in sunflower oil / oil phase [1]: good solubility
Compound: CCCCCC(O)C(C)O (stereo not drawn) [2,3-C8, 2,3-octanediol]

MICB (Staphylococcus aureus): 1000 ppm
Compound: CCCCCCCC(=O)NO [Capryl hydroxamic acid, reference compound]
